Measured values as given in patent US20230022841A1, “ISARIDIN CYCLODEPSIPEPTIDE DERIVATIVES, AND PREPARATION AND APPLICATION THEREOF” (Sun Yat-sen University, priority 2022, published 2023).

Key:
[1] = system: ADP-induced platelet aggregation; test: ADP-induced platelet aggregation in vitro (platelet-rich plasma, turbidimetric method); format: cell-based, Kunming mice; conditions: 5 min; mouse platelet-rich plasma, ADP inducer, 37° C., maximum aggregation rate within 5 min; values stated as approximate; read-out: IC50, inhibition of ADP-induced platelet aggregation
Description: Compounds I-1 to I-9 and I-13 to I-15 prepared in Example 1 were tested for their inhibitory effects on the ADP-induced platelet aggregation in vitro to evaluate the anti-thrombotic activities, and the test process was specifically described as follows.
Kunming mice were anesthetized with pentobarbital sodium, and blood was collected from the celiac artery, where the syringe was added with 3.2% sodium citrate for anti-coagulation in advance (a volume ratio of whole blood to the anticoagulant was 9:1). The mixture was gently mixed and centrifuged at 1000 r/min for 10 min to collect the supernatant as the platelet-rich plasma (PRP). The remaining part was centrifuged at 3000 r/min for 10 min to obtain platelet-poor plasma (PPP). […]
For the blank control group, 1% DMSO was mixed with 295 μL of PRP; for the drug group, 5 μL of the isaridin derivatives with different concentrations (a final concentration of 0-100 μM) was mixed with 295 μL of PRP; and regarding the positive control group, aspirin was mixed with plasma to a final concentration of 120 μM. […] Three parallel samples were tested for each group, and the platelet aggregation rate was measured at 37° C. by turbidimetric method, where the maximum aggregation rate within 5 min was recorded.
The platelet aggregation rate was expressed as the maximum platelet aggregation rate, and the results were expressed as the inhibition rate. […]

[2] = system: LPS-induced RAW264.7 cells; test: NO release from LPS-induced macrophage RAW264.7 cells (Griess); format: cell-based; conditions: Mus musculus, LPS 1 μg/mL, 24 h, Griess reagent, read-out: half maximal inhibitory concentration (IC50), NO release inhibition
Description: The effect of the compounds I-1 to I-9 and I-13 to I-15 prepared in Example 1 on the NO release from LPS-induced macrophage RAW264.7 cells was investigated to evaluate the anti-inflammatory activity, which was specifically described as follows.
Lipopolysaccharide (LPS); indomethacin (Indomethacin, Indo, positive control); mouse mononuclear macrophages (RAW264.7); dimethyl sulfoxide (DMSO); Methylthiazolyldiphenyl-tetrazolium bromide (MTT, 5 mg/mL); and Griess reagent nitrite measurement kit (Beyotime Biotechnology Co., Ltd).
The compounds were respectively dissolved in DMSO to obtain a series of 10 mM stock solutions, which were diluted with Dulbecco's modified eagle medium (DMEM) to a required concentration (DMSO<2%) for use.
RAW264.7 cells (1×10^5 cells/mL) were inoculated into a 96-well plate at 100 μL per well and incubated at 37° C. and 5% CO2 for 12 h. Different concentrations of samples containing LPS (with a final concentration of 1 μg/mL) were respectively loaded on the plate. […] After that, the absorbance of each well of the 96-well plate at 540 nm was measured with a microplate reader and then plugged into the standard curve to calculate the NO release level. […]

IC50 [1] [µM]	IC50 [2] [µM]	SMILES
120		CC(=O)Oc1ccccc1C(=O)O [aspirin]
	38	COc1ccc2c(c1)c(CC(=O)O)c(C)n2C(=O)c1ccc(Cl)cc1 [indomethacin]
